Entries after “also recorded” stand apart in the source; their conditions may differ.
Columns and labels:
[1] = system: incision skin wound in rats; assay: Breaking strength of incision skin wound in rats after a single local injection; format: in vivo; conditions: for Breaking strength / Change in % of control / Effect on breaking strength versus non-treated controls: Example II; for Breaking strength: 12 days after wounding, single injection underneath wound line, DPA 5 mg/0.25 ml, hexyl ester 7.5 mg/0.25 ml, Mean +/− SD; for Change in % of control: breaking strength 12 days after wounding; for Effect on breaking strength versus non-treated controls: in saline; for Effect on breaking strength versus non-treated controls / Breaking strength of skin wound, X: 12 days; for Breaking strength of skin wound, X: Example IV, in thermosensitive polymer (TSP), Sprague-Dawley female rats; for Effect on breaking strength of the healing wound: Example III, in polyethylene glycol 600
Method: Young adult rats have the hair clipped in the dorsum midline to make a rectangle having the dimensions of about 4 cm by about 9 cm. A full thickness skin incision in the midline of the dorsum of the rat is made about 8 cm long. The wound is closed with 9 to 10 interrupted sutures.
Various treatments are injected in between the sutures, underneath the closed wounds with a 8 cm long gastric needle, inserted at the distal site of the incision wound. After 12 days the animals are terminated, the skin wound is dissected with 2 cm intact skin at both sides. A specially designed multiple razor blade cutter with blades 0.5 cm apart is placed onto the skin, stretched loosely onto a cork lined board and hammered to obtain several (10 to 12) equal width skin strips, having the wound in the middle. Individual skin strips are attached to grips of a tensiometer and breaking strength is determined.
In this Example II, Applicants utilized the above-recited test method to evaluate local administration of unmodified lathyrogens and/or chemically modified lathyrogens, administered in a polymeric carrier.
In certain embodiments, the polymeric carrier comprised a mixture of polylactic and polyglycolic acid of defined molecular weights and proportion, dissolved in N-methylpyrolidone. This polymer was obtained from Atrix Company (CO) as Atrigel 30 which was supposed to be degraded in the tissues within 30 days. […] The rate of its degradation—hydrolysis, determines the rate of the release of the lathyrogen dispersed therein.
The tested lathyrogens, Compound I or derivative thereof, namely D-penicillamine-hexyl ester HCl, i.e. Compound III, wherein R1 is hexyl, was used at the dose of 5 mg/0.25 ml of polymeric carrier (for DPA), or 7.5 mg of Compound III/0.25 ml of polymeric carrier. The formulation was injected after closing the skin wound between the sutures, underneath the wound line. Saline solutions of BAPN and DPA were also administered at the same dose and volume.
Four rats were used in each group. The data recited in Table II are presented as Mean +/− Standard Deviation, based on 20 to 28 determinations in every group. The testing of the breaking strength of the skin wound strips was done 12 days after inflecting the wound. […]

[2] = system: peritendinous adhesions; conditions: 1-2-g/day per os, cited from earlier work
[3] = system: scar contracture of intracardiac prosthetic patches; conditions: systemic; cited from earlier work
[4] = system: esophageal stricture; conditions: given systemically, without bougienage; cited from earlier work
[5] = system: lacerated tendons; conditions: systemic administration; cited from earlier work
[6] = system: Schiff base crosslinks of the collagen; assay: Swelling of skin samples in various solutions (collagen crosslink cleavage); set-up: species or system nude mice; conditions: for Cleavage of crosslinks once reduced: crosslinks reduced with sodium borohydrate; for Cleavage of non reduced Schiff base crosslinks of collagen: non reduced skin discs
Text: This example documents one of the effects of DPA on the integrity of collagen structure. […] Once the crosslink is reduced (with sodium borohydrate) a stable covalent crosslinks is formed, resistant to any chemical means to break it. The Example also documents that only substances having —SH and —NH2 groups free are effective. Therefore N acetyl cystein is not effective due to the blocking its —NH2 group.
Method: Skin of 4 months old nude mice was dissected, spread on a board and with a 0.5 cm diameter punch several discs were obtained. These were kept in a moist chamber to prevent drying. The discs were weighted and immersed in the following solutions for 1 hour incubation: • 1. Phosphate buffered saline (0.1 M, pH 7.3)-control; • 2. PBS with 10 mg sodium borohydrate in 10 ml; • 3. Some discs from group 1 and 2 were further incubated for 1 hour PBS containing 100 mg cystein, or D-penicillamine or N-acetyl cystein; • 4. After 1 hour incubation in the above solutions, the skin samples were placed into 0.45% acetic acid (pH 3.5) for another hour.
After each incubation time the skins samples were blotted on a filter paper and weighted on a analytical balance with the sensitivity to 0.1 mg.
Swelling in Table 1 is given as mg weight/0.5 cm disc of skin. The data are shown as Mean +/− standard deviation (“SD”).
In this Example the swelling capacity was used as an indicator of the structural stability, namely number of crosslinks in the collagen molecules. More crosslinked collagen swells less than when the bonds are cleaved, resuming the structure of “young” collagen.

[7] = system: esophageal stricture; conditions: young adult rabbits; cited from earlier work
[8] = system: function of filter surgery; conditions: systemic administration; cited from earlier work
[9] = system: sclera puncture wound; conditions: locally injected; cited from earlier work
[10] = system: intraoccular pressure; conditions: topical, cited from earlier work
[11] = 0.5 cm skin discs, 1 hour PBS, 1 hour PBS containing 100 mg substance, then 1 hour 0.45% acetic acid (pH 3.5)

N#CCCN [BAPN, Beta-aminopropionitrile]
Breaking strength [1]: 735 +/− 40 g/0.5 cm
Change in % of control [1]: +14%
Effect on breaking strength versus non-treated controls [1]: no differences in the breaking strength
Effect in patients after tenolysis [2]: beneficial effect
Side toxic effects ([2]; study discontinued): several side toxic effects
Scar contracture [3]: inhibition of scar contracture
Stricture of the esophageal lumen [4]: preventing the stricture of the lumen
Gliding function of lacerated tendons [5]: significant improvement in the gliding function

CCCCCCOC(=O)[C@H](N)C(C)(C)S.Cl [DPA - lipophilic, D-penicillamine-hexyl ester HCl]
Breaking strength of skin wound, X [1]: 321

CCCCCCNCCC#N [BAPN - lipophilic, hexyl-beta-aminopropionitrile]
Effect on breaking strength of the healing wound [1]: effectiveness
Breaking strength of skin wound, X [1]: 226

[BH4-].[Na+] [SBH + control, sodium borohydrate]
Swelling of skin samples, Mean ([6]; discs first incubated 1 hour in PBS with 10 mg sodium borohydrate in 10 ml (crosslinks reduced), then substance, then 0.45% acetic acid (pH 3.5)): 27.5 mg weight/0.5 cm disc of skin

CC(C)(S)C(N)C(=O)O (stereo in doubt) [DPA, D-Penicillamine]
Breaking strength [1]: 695 +/− 38 g/0.5 cm
Change in % of control [1]: −2%
Effect on breaking strength versus non-treated controls [1]: no differences in the breaking strength
Severity of esophageal stricture [7]: less severe stricture
Effect on the function of filter surgery [8]: not effective
Swelling of skin samples, Mean [6, 11]: 84.0 mg weight/0.5 cm disc of skin
Cleavage of crosslinks once reduced [6]: no effective
Cleavage of non reduced Schiff base crosslinks of collagen [6]: cleaves the non reduced covalent Schiff base crosslinks; also recorded: effectively cleaving
Collagen deposition in adjacent muscle [9]: decreased
Wound contraction after puncturing the sclera [9]: inhibited wound contraction

COc1cc2c(c(OC)c1OC)-c1ccc(OC)c(=O)cc1[C@@H](NC(C)=O)CC2 [colchicine]
Severity of esophageal stricture [7]: severe stricture
Wound healing [7]: delayed wound healing

N[C@@H](CS)C(=O)O [CYSH, cystein]
Swelling of skin samples, Mean [6, 11]: 84.0 mg weight/0.5 cm disc of skin
Cleavage of crosslinks once reduced [6]: no effective
Cleavage of non reduced Schiff base crosslinks of collagen [6]: effectively cleaving

CC(=O)N[C@@H](CS)C(=O)O [N-acetylCYSH, N-acetyl cystein]
Swelling of skin samples, Mean [6, 11]: 32.2 mg weight/0.5 cm disc of skin
Cleavage of non reduced Schiff base crosslinks of collagen [6]: not effective

N#CCCN.N#CCCN.O=C(O)/C=C/C(=O)O [BAPN-F]
Time postoperative pressure was maintained ([10]; after filtration surgery): 26.4+−11 weeks
Overall success rate ([10]; difficult cases of glaucoma): 74%
Postoperative intraoccular pressure ([10]; preoperative pressure 40 mm Hg): 19 mm Hg
Collagen deposition in adjacent muscle [9]: decreased
Wound contraction after puncturing the sclera [9]: inhibited wound contraction

DPA-hexanal acetone adduct
Effect on breaking strength of the healing wound [1]: no effect

From patent US20050276855A1, “Composition and method using local application of lipophilic lathyrogens sustained release formulations” (priority 2004, published 2005)
